Values quoted from earlier work, collected in US20150342872A1 (CRITITECH, INC., priority 2014, published 2015).

Legend:
[1] = tested on: microtubule bundling and cytotoxic effects
[2] = 3-hour infusion, 135 versus 175 mg/m2

## CC(=O)O[C@H]1C(=O)[C@@]2(C)[C@H]([C@H](OC(=O)c3ccccc3)[C@]3(O)C[C@H](OC(=O)[C@H](O)[C@@H](NC(=O)c4ccccc4)c4ccccc4)C(C)=C1C3(C)C)[C@]1(OC(C)=O)CO[C@@H]1C[C@@H]2O [paclitaxel]
[1]
  minimal concentration required to induce microtubule bundling and cytotoxic effects: > 0.1 µmol/L
[2]
  increase of AUC (0-∞) for a 30% increase in dose: 89%
